Assay results published in patent US11191874B2, “Biomaterials for neuronal implants and use of said biomaterials in the diagnosis and therapy of neuronal diseases” (Albert-Ludwigs-U[…], priority 2014, dated 2021).
“Also recorded” adds a separate entry of the source. Where no end group is shown, it is not given here.

Columns and labels:
GMB tumor spheroids = assay: U-87 spheroid Matrigel invasion assay; format: cell-based; conditions: GsMTx4 in culture media, 3D matrix
Protocol: Spheroids (which resemble a GBM tumor in vitro) are formed via the hanging drop procedure. For this, cells were seeded into a carboxymethylcellulose solution (with very high viscosity) and pipetted on the inner side of the lid of a cell culture plate. After reversing the lid and putting it back onto the cell culture plate, the cells are hanging in a drop of carboxymethylcellulose. Because of the high viscosity of the media and no possibility to attach, the cells form spheroids. […] During incubation cells start migrating out of the spheroid and invading the 3D matrix. The higher the invasive potential of the cells, the more they will invade the 3D matrix.

[1] = test system: rat hippocampal neurons and astrocytes; assay: Neuron-astrocyte association in mixed primary hippocampal cultures; format: cell-based; conditions: GsMTx4 5 μM, smooth glass substrates
Description: The inventors therefore evaluated the response of mixed primary cultures of rat hippocampal neurons and astrocytes to the different roughness regimes.
An also remarkable finding was that nanoroughness appeared to modulate the relationship, and dependency of neurons on astrocytes. […] After 5 days, the percent neurons that were associated with astrocytes on the 32 nm Rq surface was around 15%, which was 1.5-2 fold lower than those on other Rq's, which ranged from 20-40%, and 6 fold lower than that on the smooth glass substrate (FIG. 4c). That is, in comparison to the other Rq's, over twice as many neurons on 32 nm Rq surface were surviving independently of astrocytes. At 6 weeks however, the percent of neurons that were surviving independently of astrocytes on the 32 nm Rq was over 6 fold greater in comparison to the other Rq's. While over 90% of neurons were associated with astrocytes on other roughnesses, only 15% of neurons were associated with astrocytes on 32 nm Rq (FIG. 4d). […]
Cell density/composition analysis: In order to analyze the cell density and composition of mixed neuron/astrocyte cultures on the different substrates at the end of the experiments, MAP-2^+, GFAP^+ and Tuj-1^+ cells were counted in 4 separately isolated cultures in 10 random image sections and on two different substrates of each isolated culture.

hippocampal neurons = assay: Calcium sensitive FURA-2 imaging of hippocampal neurons after KCl depolarization; format: cell-based, rat; conditions: GsMTx4, KCl depolarization
Protocol: Calcium sensitive imaging: Intracellular calcium levels were measured with the cell permeable probe FURA-2-acetoxymethyl ester (Invitrogen Life Technologies GmbH). Cells were exposed to 5 μM FURA-2-AMin DMSO (final concentration of 0.2%) for 45 minutes in a humidified incubator at 37° C. Increase in intracellular calcium levels following depolarization with 50 mM KCl was analyzed by the change in the absorption and emission spectra of FURA-2 upon Ca^2+ binding using a custom-built perfusion chamber mounted to a Zeiss Observer Z1 and the ZEN blue software (Zeiss AG, Germany).The rate of intracellular Ca^2+ increase was calculated as the slope of the linear portion of the increase in FURA-2 intensity.

Substance: GsMTx4 (GCLEFWWKCNPNDDKCCRPKLKCSKLFKLCNFSF; ends and bridges not checked; cysteine pairing not given here)
- formation of sprouts from tumor spheroids (invasiveness) (GMB tumor spheroids): significantly reduced; also recorded: less invasive potential
- neuron-astrocyte coupling upon inhibition of Piezo-1 (FAM38A) [1]: neurons decouple from astrocytes even on smooth glass substrates; also recorded: decoupling of hippocampal neurons from astrocytes
- FURA-2 intensity profile and rate of calcium influx upon depolarization, smooth glass versus Rq=32 nm, upon inhibition of Piezo-1 (hippocampal neurons): is lost upon inhibition of Piezo-1; also recorded: identical
